A short description of this assay: Inhibition of HAP dissolution (calcium in supernatant by ICP). In kind it is physicochemical. As to conditions: compound 1 mM; supersaturated calcium phosphate, 0.05 M Tris pH 7.4, 37° C., 24 h. How it is done: The test based on a slightly modified method of Francis et al. (Francis, M. D. The inhibition of calcium hydroxyapatite crystal growth by polyphosphonates and polyphosphates. Calcif Tissue Res 1969, 3, 151-162). The extent of HAP formation in the presence of inhibitors was studied in supersaturated calcium phosphate solutions.
The final concentration of calcium (CaCl2.2H2O) and phosphate (K2HPO4) ions in the incubation solutions was 3.87 mM and 2.32 mM, respectively, yielding a molar ratio of [Ca]/[PO4]=1.67, as in hydroxyapatite (HAP). Each salt solution was prepared in 0.05 M Tris buffer, pH 7.4. The tested BP compound (1 mM) was dissolved in […]. 5 ml of 7.74 mM CaCl2.2H2O solution containing the BP compound and 5 ml of the 4.64 mM K2HPO4 were mixed in borosilicate glass vials (acid and acetone washed). The vials were then placed in a shaker at 37° C. for 24 h. The vials contents were centrifuged (4 min, 4000 rpm) and the supernatants were then separated and analyzed for calcium concentration by ICP Analysis.

As to `C=Cc1ccc(C(O)(P(=O)([O-])[O-])P(=O)([O-])O)cc1.[Na+].[Na+].[Na+]` [St-BP monomer, Trisodium hydroxyl (4-vinylphenyl) methelenebisphosphonic acid], the “Calcium ions concentration in filtrate (% of initial concentration)” value was 45 % of initial concentration.

Values taken from patent publication US10508126B2, “Bisphosphonates vinylic monomers and polymers and uses thereof” (BAR-ILAN UNIVERSITY, priority 2012, dated 2019).
